Source: ChEMBL document CHEMBL1201862, “PubChem BioAssay data set” (2004)
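Five compound concentrations were applied to cells in 96-well plates for 48 hours; endpoints were derived by simple linear interpolation of the resulting dose-response curve. GI50 = concentration required for 50% inhibition of growth.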 The source made the active and inactive calls. Rule as the data show it: active = GI50 up to about 1.1 µM and inactive = higher.

Columns and labels:
Test in all cases: growth of human tumour cells (NCI), 48 h
COLO 205 = test system: COLO 205
A549 = test system: A549
SK-MEL-28 = test system: SK-MEL-28
SNB-75 = test system: SNB-75
NCI-H460 = test system: NCI-H460
RPMI-8226 = test system: RPMI-8226
A498 = test system: A498
MOLT-4 = test system: MOLT-4
TK-10 = test system: TK-10
NCI/ADR-RES = test system: NCI/ADR-RES
KM12 = test system: KM12
CCRF-CEM = test system: CCRF-CEM
MDA-MB-231 = test system: MDA-MB-231
OVCAR-4 = test system: OVCAR-4
MDA-N = test system: MDA-N
M14 = test system: M14
T47D = test system: T47D
Malme-3M = test system: Malme-3M
HOP-62 = test system: HOP-62
SW-620 = test system: SW-620
OVCAR-5 = test system: OVCAR-5
MDA-MB-435 = test system: MDA-MB-435
SNB-19 = test system: SNB-19
BT-549 = test system: BT-549
EKVX = test system: EKVX
SF-539 = test system: SF-539
SK-OV-3 = test system: SK-OV-3
LOX IMVI = test system: LOX IMVI
HL-60 = test system: HL-60
CAKI-1 = test system: CAKI-1
OVCAR-3 = test system: OVCAR-3
SF-295 = test system: SF-295
786-0 = test system: 786-0
U-251 = test system: U-251
RXF 393 = test system: RXF 393
NCI-H522 = test system: NCI-H522
HT-29 = test system: HT-29
HCT-15 = test system: HCT-15
NCI-H23 = test system: NCI-H23
DU-145 = test system: DU-145
HCT-116 = test system: HCT-116
MCF7 = test system: MCF7
SF-268 = test system: SF-268
NCI-H226 = test system: NCI-H226
SN12C = test system: SN12C
PC-3 = test system: PC-3
IGROV-1 = test system: IGROV-1
K562 = test system: K562
OVCAR-8 = test system: OVCAR-8
SK-MEL-2 = test system: SK-MEL-2
ACHN = test system: ACHN
UO-31 = test system: UO-31
Hs-578T = test system: Hs-578T
HCC 2998 = test system: HCC 2998
UACC-257 = test system: UACC-257
SR = test system: SR
SK-MEL-5 = test system: SK-MEL-5
HOP-92 = test system: HOP-92
UACC-62 = test system: UACC-62

Compound: COCC(=O)OC1CCn2c1nc1c2C(=O)C(C)=C(NC(C)=O)C1=N (stereo not drawn)
- GI50 (COLO 205): 12.5 µM (inactive)
- GI50 (A549): 21.3 µM (inactive)
- GI50 (SK-MEL-28): 4.59 µM (inactive)
- GI50 (SNB-75): 15.3 µM (inactive)
- GI50 (NCI-H460): 14 µM (inactive)
- GI50 (RPMI-8226): 2.27 µM (inactive)
- GI50 (A498): 18.5 µM (inactive)
- GI50 (MOLT-4): 2.34 µM (inactive)
- GI50 (TK-10): 15.6 µM (inactive)
- GI50 (NCI/ADR-RES): 3.99 µM (inactive)
- GI50 (KM12): 14.2 µM (inactive)
- GI50 (CCRF-CEM): 2.1 µM (inactive)
- GI50 (MDA-MB-231): 3.27 µM (inactive)
- GI50 (OVCAR-4): 2.19 µM (inactive)
- GI50 (MDA-N): 1.82 µM (inactive)
- GI50 (M14): 4.95 µM (inactive)
- GI50 (T47D): 1.95 µM (inactive)
- GI50 (Malme-3M): 1.38 µM (inactive)
- GI50 (HOP-62): 15.6 µM (inactive)
- GI50 (SW-620): 2.49 µM (inactive)
- GI50 (OVCAR-5): 9.91 µM (inactive)
- GI50 (MDA-MB-435): 1.66 µM (inactive)
- GI50 (SNB-19): 17.9 µM (inactive)
- GI50 (BT-549): 0.993 µM (active)
- GI50 (EKVX): 12.3 µM (inactive)
- GI50 (SF-539): 2.07 µM (inactive)
- GI50 (SK-OV-3): 17.7 µM (inactive)
- GI50 (LOX IMVI): 2.53 µM (inactive)
- GI50 (HL-60): 2.9 µM (inactive)
- GI50 (CAKI-1): 11.2 µM (inactive)
- GI50 (OVCAR-3): 2.03 µM (inactive)
- GI50 (SF-295): 16.1 µM (inactive)
- GI50 (786-0): 3.03 µM (inactive)
- GI50 (U-251): 5.38 µM (inactive)
- GI50 (RXF 393): 2.16 µM (inactive)
- GI50 (NCI-H522): 5.01 µM (inactive)
- GI50 (HT-29): 4.21 µM (inactive)
- GI50 (HCT-15): 8.13 µM
- GI50 (NCI-H23): 4.34 µM (inactive)
- GI50 (DU-145): 20.4 µM (inactive)
- GI50 (HCT-116): 3.08 µM (inactive)
- GI50 (MCF7): 1.69 µM (inactive)
- GI50 (SF-268): 5.19 µM (inactive)
- GI50 (NCI-H226): 18.5 µM (inactive)
- GI50 (SN12C): 3.72 µM (inactive)
- GI50 (PC-3): 2.58 µM (inactive)
- GI50 (IGROV-1): 10.8 µM (inactive)
- GI50 (K562): 2.63 µM (inactive)
- GI50 (OVCAR-8): 2.56 µM (inactive)
- GI50 (SK-MEL-2): 2.15 µM (inactive)
- GI50 (ACHN): 7.71 µM (inactive)
- GI50 (UO-31): 11.6 µM (inactive)
- GI50 (Hs-578T): 4.1 µM (inactive)
- GI50 (HCC 2998): 13.7 µM (inactive)
- GI50 (UACC-257): 2.43 µM (inactive)
- GI50 (SR): 2.64 µM (inactive)
- GI50 (SK-MEL-5): 2.42 µM (inactive)
- GI50 (HOP-92): 3.57 µM (inactive)
- GI50 (UACC-62): 1.66 µM (inactive)

Compound: CC(C)C(/C=C/c1ccccc1)=N\NC(=S)NN
- GI50 (COLO 205): 55.1 µM (inactive)
- GI50 (A549): 51.1 µM (inactive)
- GI50 (SK-MEL-28): > 100 µM (inactive)
- GI50 (SNB-75): > 100 µM (inactive)
- GI50 (NCI-H460): 40.6 µM (inactive)
- GI50 (RPMI-8226): 14.2 µM (inactive)
- GI50 (A498): > 100 µM (inactive)
- GI50 (MOLT-4): 12.7 µM (inactive)
- GI50 (TK-10): > 100 µM (inactive)
- GI50 (NCI/ADR-RES): 41.6 µM (inactive)
- GI50 (KM12): > 86.1 µM (inactive)
- GI50 (CCRF-CEM): 3.93 µM (inactive)
- GI50 (MDA-MB-231): > 100 µM (inactive)
- GI50 (OVCAR-4): 50.5 µM (inactive)
- GI50 (MDA-N): 26.6 µM (inactive)
- GI50 (M14): > 100 µM (inactive)
- GI50 (T47D): 47 µM (inactive)
- GI50 (Malme-3M): > 100 µM (inactive)
- GI50 (HOP-62): > 84.1 µM (inactive)
- GI50 (SW-620): 66.5 µM (inactive)
- GI50 (OVCAR-5): > 100 µM (inactive)
- GI50 (MDA-MB-435): 49.5 µM (inactive)
- GI50 (SNB-19): > 100 µM (inactive)
- GI50 (BT-549): > 96.2 µM (inactive)
- GI50 (EKVX): 38 µM (inactive)
- GI50 (SF-539): > 51.1 µM (inactive)
- GI50 (SK-OV-3): > 94.4 µM (inactive)
- GI50 (LOX IMVI): 16.5 µM (inactive)
- GI50 (HL-60): 19.4 µM (inactive)
- GI50 (CAKI-1): 39.4 µM (inactive)
- GI50 (OVCAR-3): 21.3 µM (inactive)
- GI50 (SF-295): 67.6 µM (inactive)
- GI50 (786-0): 56.1 µM (inactive)
- GI50 (U-251): > 67.9 µM (inactive)
- GI50 (RXF 393): 99.8 µM (inactive)
- GI50 (NCI-H522): 16.7 µM (inactive)
- GI50 (HT-29): 98.2 µM (inactive)
- GI50 (HCT-15): 31.6 µM
- GI50 (NCI-H23): > 77.3 µM (inactive)
- GI50 (DU-145): > 100 µM (inactive)
- GI50 (HCT-116): 31.5 µM (inactive)
- GI50 (MCF7): 30.6 µM (inactive)
- GI50 (SF-268): 20.7 µM (inactive)
- GI50 (NCI-H226): > 70.3 µM (inactive)
- GI50 (SN12C): > 100 µM (inactive)
- GI50 (PC-3): 53.3 µM (inactive)
- GI50 (IGROV-1): 67.8 µM (inactive)
- GI50 (K562): 24 µM (inactive)
- GI50 (OVCAR-8): 45.2 µM (inactive)
- GI50 (SK-MEL-2): > 55.6 µM (inactive)
- GI50 (ACHN): 40.6 µM (inactive)
- GI50 (UO-31): 32.3 µM (inactive)
- GI50 (Hs-578T): 80.5 µM (inactive)
- GI50 (HCC 2998): 99.1 µM (inactive)
- GI50 (UACC-257): > 100 µM (inactive)
- GI50 (SR): 0.546 µM (active)
- GI50 (SK-MEL-5): 33 µM (inactive)
- GI50 (HOP-92): 36.4 µM (inactive)
- GI50 (UACC-62): 35.3 µM (inactive)
